Experiments:
Daoy cells [1] = experiment: s.c. flank xenograft with bioluminescence imaging; format: in vivo, athymic nude/nude mice
Method: Stable Daoy cell clones were generated by transfecting a luciferase-expressing vector (the firefly luciferase gene cloned in the plentiV5 vector; Invitrogen) into the stable 199bSC1 clone or into the control empty-vector clone. Then 100,000 viable 199b-Luc1 and Ctl-Luc-4 cells were mixed with a 1:1 PBS:matrigel solution (BD Biosciences, San Jose, Calif.). Six-week-old female athymic mice were anesthetised using avertin (Sigma) as a 3% solution in tert-amyl alcohol (Fisher), at a dose of 3 mg per 10 g body weight. The mice were injected s.c. with a total volume of 0.1 mL of matrigel PBS cell suspension, into each flank. The mice were imaged after the implantation of the cells, with tumor growth monitored by weekly bioluminescence acquisitions (BLI) using an MS 3D Illumina Imaging System (Xenogen Corp. Alameda, Calif.). For the acquisitions, the mice were […] with 100 μL D-luciferin (15 mg/mL stock) per 10 g body weight, and imaged for 30 s, 10 min after luciferin injection; four acquisitions per mouse were made (ventral, dorsal and each flank). To quantify the bioluminescence, the integrated fluxes of photons (photons per s) within each area of interest were determined using the Living Images Software Package 3.0 (Xenogen-Caliper). The emission data from the start of tumor growth were collected for at least 6 weeks, and then were normalized to the bioluminescence on the injection day. Calliper measurements of tumor sizes were made weekly, along the long and short axes, and estimations of their volumes were made using the formula: width2×length×0.52.

Daoy cells [2] = experiment: In-vitro cell-motility assay (Boyden chamber); format: cell-based, human; details: 199bSC1 vs empty vector control, 0.5% FBS chemoattractant
Method: The control DAOY cell line and the stable DAOY-199bSC1 clone were used in the ‘cell-motility’ assays. Cell migration assays were performed with 8-μm pore size Transwells (Costar). The cells were suspended by trypsinization, washed, and resuspended in 100 μl serum-free DMEM containing 0.1% BSA (5×10^4 cells) and placed in the upper chamber of the Transwells. The lower chamber was filled with 600 μl serum-free DMEM supplemented with 0.5% FBS, as the chemo-attractor. The cells were allowed to migrate for 1 h at 37° C. Cells migrating to the lower side of the polycarbonate membrane were fixed with 2.5% glutaraldehyde and stained with Hematoxylin solution (Sigma). The cells were counted, and the analysis performed on three Transwells for each condition, and each experiment was repeated twice.

Daoy cells [3] = experiment: Expression of differentiation and proliferation markers (real-time PCR, Western blot); format: cell-based, human
Method: Total RNA was extracted from the cell lines using the Trizol reagent (Invitrogen). Synthesis of cDNA from total RNA (4 μg) was performed using a Super Script II First Strand Kit (Invitrogen). Real-time quantitative PCR was performed using standard protocols with an Applied Biosystems ABI PRISM 7900HT Sequence Detection system. To calculate the relative gene expression of the miR-199b-5p precursor, the relative amounts of each pre-miRNA were normalized to U6 miRNA; the other genes were normalized using the β-actin gene. Real-time PCR primers for each gene were designed using Primer Express software version 2.0 (Applied Biosystems). The primer sequences are available upon request.
Thirty μg cytosolic or nuclear lysates were loaded onto 12% polyacrilamide gels, and blotted onto polyvinylidene difluoride membranes (PVDF; BioRad, Milan, Italy). The membranes were then incubated with anti-HES1 (kind gift of Dr. Tetsuo Sudo TORAY Industries, Tebiro Kamakura, Japan), a polyclonal rabbit antibody (1:500), an anti-GSK3-β (B&D Bioscience) monoclonal antibody (1:2500), an anti-c-Myc polyclonal rabbit antibody (1:200) (Santa Cruz Biotechnology, Santa Cruz, Calif., USA), an anti-GABRA6 antibody (Santa Cruz Biotechnology, Santa Cruz, USA) (1:200), an anti-MATH3 antibody (Santa Cruz Biotechnology, Santa Cruz, USA) (1:200) and an anti-cyclin D1 (1:200) polyclonal rabbit antibody (Cell Signaling). An anti-β-actin antibody (1:1.000) (Sigma) was used as the control for equal loading of cytosolic lysates and a polyclonal anti-β-laminin antibody (1:50) (Santa Cruz Biotechnology, Santa Cruz, Calif., USA) for equal loading of nuclear lysates.

[4] = Western blot, stable 199bSC1 clone

## miR-199b-5p: mature microRNA CCCAGUGUUUAGACUAUCUGUUC (SEQ ID NO:11); over-expressed from pre-miR-199b construct, e.g. stable Daoy clones 199bSC1, 199bMC1 (listed as RNA, chemistry not fully specified)
Daoy cells [1]; 199b-Luc1 vs Ctl-Luc-4 Daoy clones
  tumor volumes, control flanks vs miR-199b-5p flanks: significant difference in tumor volumes
Daoy cells [1]; after nine weeks
  mice with statistically significant difference in bioluminescence signal between control and miR-199b-5p sides: four out of the five
Daoy cells [1]; s.c. injection of Daoy cells over-expressing miR-199b-5p, nine weeks (control cells 5/5)
  tumors detectable macroscopically: 3/5
Daoy cells [2]
  cell motility: did not lead to a decrease in cell motility
Daoy cells [3]; [4]
  GABRA6 protein: up-regulated
  MATH3 protein: up-regulated
  c-Myc protein: decreased
  cyclin D1 protein: decreased
Daoy cells [3]; real-time PCR, both stable clones
  expression of pro-neural bHLH (MASH1, MATH3, NGN2): increases in expression
Daoy cells [3]; real-time PCR, stable 199bSC1 and 199bMC1 clones
  MAP2 mRNA expression: up-regulated
Daoy cells [3]; real-time PCR, stable 199bSC1 clone
  GFAP levels: increased
Daoy cells [3]; real-time PCR, stable clones
  GABRA6 mRNA expression: significantly over-expressed
  c-Myc expression: decreased
  cyclin D1 expression: decreased
